According to ChEMBL document CHEMBL1201862, “PubChem BioAssay data set” (2004):
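Cultured in 96-well plates, cells were exposed to test compound for 48 hours across five concentrations. Abbreviation: GI50, concentration required for 50% inhibition of growth.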 The source made the active and inactive calls. No stated cut-off is given here; in the data, active = GI50 up to about 1.1 µM and inactive = higher.

How the values were obtained:
Test in all cases: growth of human tumour cells (NCI), 48 h
SK-MEL-2 = test system: SK-MEL-2
ACHN = test system: ACHN
NCI-H23 = test system: NCI-H23
MDA-N = test system: MDA-N
SK-MEL-5 = test system: SK-MEL-5
SNB-75 = test system: SNB-75
EKVX = test system: EKVX
SR = test system: SR
A498 = test system: A498
HCT-116 = test system: HCT-116
OVCAR-5 = test system: OVCAR-5
PC-3 = test system: PC-3
K562 = test system: K562
NCI/ADR-RES = test system: NCI/ADR-RES
Malme-3M = test system: Malme-3M
MCF7 = test system: MCF7
SK-OV-3 = test system: SK-OV-3
UO-31 = test system: UO-31
RXF 393 = test system: RXF 393
DU-145 = test system: DU-145
A549 = test system: A549
SF-268 = test system: SF-268
NCI-H522 = test system: NCI-H522
BT-549 = test system: BT-549
SNB-19 = test system: SNB-19
OVCAR-4 = test system: OVCAR-4
U-251 = test system: U-251
MDA-MB-231 = test system: MDA-MB-231
SN12C = test system: SN12C
T47D = test system: T47D
OVCAR-3 = test system: OVCAR-3
OVCAR-8 = test system: OVCAR-8
NCI-H226 = test system: NCI-H226
Hs-578T = test system: Hs-578T
HOP-62 = test system: HOP-62
COLO 205 = test system: COLO 205
CCRF-CEM = test system: CCRF-CEM
SF-539 = test system: SF-539
RPMI-8226 = test system: RPMI-8226
HT-29 = test system: HT-29
786-0 = test system: 786-0
SF-295 = test system: SF-295
SW-620 = test system: SW-620
HCC 2998 = test system: HCC 2998
SK-MEL-28 = test system: SK-MEL-28
M14 = test system: M14
TK-10 = test system: TK-10
MDA-MB-435 = test system: MDA-MB-435
UACC-257 = test system: UACC-257
KM12 = test system: KM12
MOLT-4 = test system: MOLT-4
HOP-92 = test system: HOP-92
HCT-15 = test system: HCT-15
LOX IMVI = test system: LOX IMVI
UACC-62 = test system: UACC-62
NCI-H460 = test system: NCI-H460
HL-60 = test system: HL-60
IGROV-1 = test system: IGROV-1
CAKI-1 = test system: CAKI-1

For `COC(=O)C1=C([C@H]2COC(C)(C)O2)[C@H]2C[C@@H]1[C@@H]1OC(C)(C)O[C@@H]12`, the GI50 (SK-MEL-2) was > 100 µM (inactive), the GI50 (ACHN) was > 100 µM (inactive) and the GI50 (NCI-H23) was > 100 µM (inactive). For the same compound, the GI50 (MDA-N) was > 100 µM (inactive), the GI50 (SK-MEL-5) was > 100 µM (inactive) and the GI50 (SNB-75) was > 100 µM (inactive). The GI50 (EKVX) was > 100 µM (inactive), the GI50 (SR) was > 100 µM (inactive) and the GI50 (A498) was > 100 µM (inactive). For the same compound, the GI50 (HCT-116) was > 100 µM (inactive), the GI50 (OVCAR-5) was > 100 µM (inactive) and the GI50 (PC-3) was > 100 µM (inactive). The GI50 (K562) was > 100 µM (inactive), the GI50 (NCI/ADR-RES) was > 100 µM (inactive) and the GI50 (Malme-3M) was > 100 µM (inactive). For the same compound, the GI50 (MCF7) was > 100 µM (inactive), the GI50 (SK-OV-3) was > 100 µM (inactive) and the GI50 (UO-31) was > 100 µM (inactive). For the same compound, the GI50 (RXF 393) was > 100 µM (inactive), the GI50 (DU-145) was > 100 µM (inactive) and the GI50 (A549) was > 100 µM (inactive). The GI50 (SF-268) was > 100 µM (inactive), the GI50 (NCI-H522) was > 100 µM (inactive) and the GI50 (BT-549) was > 100 µM (inactive). The GI50 (SNB-19) was > 100 µM (inactive), the GI50 (OVCAR-4) was > 100 µM (inactive) and the GI50 (U-251) was > 100 µM (inactive). The GI50 (MDA-MB-231) was > 100 µM (inactive), the GI50 (SN12C) was > 100 µM (inactive) and the GI50 (T47D) was > 100 µM (inactive). The GI50 (OVCAR-3) was > 100 µM (inactive), the GI50 (OVCAR-8) was > 100 µM (inactive) and the GI50 (NCI-H226) was > 100 µM (inactive). The GI50 (Hs-578T) was > 100 µM (inactive), the GI50 (HOP-62) was > 100 µM (inactive) and the GI50 (COLO 205) was > 100 µM (inactive). For the same compound, the GI50 (CCRF-CEM) was > 100 µM (inactive), the GI50 (SF-539) was > 100 µM (inactive) and the GI50 (RPMI-8226) was > 100 µM (inactive). For the same compound, the GI50 (HT-29) was > 100 µM (inactive), the GI50 (786-0) was > 100 µM (inactive) and the GI50 (SF-295) was > 100 µM (inactive). For the same compound, the GI50 (SW-620) was > 100 µM (inactive), the GI50 (HCC 2998) was > 100 µM (inactive) and the GI50 (SK-MEL-28) was > 100 µM (inactive). For the same compound, the GI50 (M14) was > 100 µM (inactive), the GI50 (TK-10) was > 100 µM (inactive) and the GI50 (MDA-MB-435) was > 100 µM (inactive). The GI50 (UACC-257) was > 100 µM (inactive), the GI50 (KM12) was > 100 µM (inactive) and the GI50 (MOLT-4) was > 100 µM (inactive). The GI50 (HOP-92) was 38.7 µM (inactive), the GI50 (HCT-15) was > 100 µM and the GI50 (LOX IMVI) was > 100 µM (inactive). For the same compound, the GI50 (UACC-62) was > 100 µM (inactive), the GI50 (NCI-H460) was > 100 µM (inactive) and the GI50 (HL-60) was > 100 µM (inactive). The GI50 (IGROV-1) was > 100 µM (inactive).

`CN(C)C(=O)/N=C1\SC(=N\c2ccccc2)/C(=N/c2ccccc2)N1c1ccc([N+](=O)[O-])cc1` was tested, and the GI50 (SK-MEL-2) was > 100 µM (inactive), the GI50 (NCI-H23) was > 100 µM (inactive) and the GI50 (MDA-N) was > 100 µM (inactive). The GI50 (SK-MEL-5) was 49.8 µM (inactive), the GI50 (SNB-75) was 41.6 µM (inactive) and the GI50 (SR) was > 100 µM (inactive). The GI50 (A498) was > 100 µM (inactive), the GI50 (HCT-116) was > 100 µM (inactive) and the GI50 (OVCAR-5) was > 100 µM (inactive). The GI50 (PC-3) was > 100 µM (inactive), the GI50 (K562) was > 100 µM (inactive) and the GI50 (NCI/ADR-RES) was > 100 µM (inactive). For the same compound, the GI50 (Malme-3M) was > 100 µM (inactive), the GI50 (MCF7) was 84.7 µM (inactive) and the GI50 (SK-OV-3) was > 100 µM (inactive). For the same compound, the GI50 (UO-31) was > 100 µM (inactive), the GI50 (RXF 393) was > 100 µM (inactive) and the GI50 (DU-145) was > 100 µM (inactive). For the same compound, the GI50 (CAKI-1) was > 100 µM (inactive), the GI50 (NCI-H522) was > 100 µM (inactive) and the GI50 (BT-549) was > 100 µM (inactive). For the same compound, the GI50 (SNB-19) was > 100 µM (inactive), the GI50 (U-251) was > 100 µM (inactive) and the GI50 (MDA-MB-231) was > 100 µM (inactive). For the same compound, the GI50 (SN12C) was > 100 µM (inactive), the GI50 (T47D) was > 100 µM (inactive) and the GI50 (OVCAR-3) was 71 µM (inactive). For the same compound, the GI50 (OVCAR-8) was > 100 µM (inactive), the GI50 (NCI-H226) was > 100 µM (inactive) and the GI50 (Hs-578T) was 51.6 µM (inactive). The GI50 (HOP-62) was 61.9 µM (inactive), the GI50 (COLO 205) was > 100 µM (inactive) and the GI50 (CCRF-CEM) was > 100 µM (inactive). The GI50 (RPMI-8226) was > 100 µM (inactive), the GI50 (HT-29) was 52.4 µM (inactive) and the GI50 (SF-295) was > 100 µM (inactive). The GI50 (HCC 2998) was > 100 µM (inactive), the GI50 (SK-MEL-28) was > 100 µM (inactive) and the GI50 (M14) was > 100 µM (inactive). The GI50 (MDA-MB-435) was > 100 µM (inactive), the GI50 (KM12) was > 100 µM (inactive) and the GI50 (MOLT-4) was > 100 µM (inactive). The GI50 (HCT-15) was > 100 µM, the GI50 (UACC-62) was 77.4 µM (inactive) and the GI50 (NCI-H460) was > 100 µM (inactive). The GI50 (HL-60) was > 100 µM (inactive) and the GI50 (IGROV-1) was > 100 µM (inactive).
